Data published in paper PMC3368886, “ATPase Cycle and DNA Unwinding Kinetics of RecG Helicase” (PLoS ONE, 2012).

How the values were obtained:
[1] = molecular target: T1, RecG (Thermotoga maritima, UniProt Q9WY48); design: method as in PMID 16363810; settings: much lower concentration of DNA; cited from earlier work
T1 construct: made in house
T1 sequence (Q9WY48 1-780): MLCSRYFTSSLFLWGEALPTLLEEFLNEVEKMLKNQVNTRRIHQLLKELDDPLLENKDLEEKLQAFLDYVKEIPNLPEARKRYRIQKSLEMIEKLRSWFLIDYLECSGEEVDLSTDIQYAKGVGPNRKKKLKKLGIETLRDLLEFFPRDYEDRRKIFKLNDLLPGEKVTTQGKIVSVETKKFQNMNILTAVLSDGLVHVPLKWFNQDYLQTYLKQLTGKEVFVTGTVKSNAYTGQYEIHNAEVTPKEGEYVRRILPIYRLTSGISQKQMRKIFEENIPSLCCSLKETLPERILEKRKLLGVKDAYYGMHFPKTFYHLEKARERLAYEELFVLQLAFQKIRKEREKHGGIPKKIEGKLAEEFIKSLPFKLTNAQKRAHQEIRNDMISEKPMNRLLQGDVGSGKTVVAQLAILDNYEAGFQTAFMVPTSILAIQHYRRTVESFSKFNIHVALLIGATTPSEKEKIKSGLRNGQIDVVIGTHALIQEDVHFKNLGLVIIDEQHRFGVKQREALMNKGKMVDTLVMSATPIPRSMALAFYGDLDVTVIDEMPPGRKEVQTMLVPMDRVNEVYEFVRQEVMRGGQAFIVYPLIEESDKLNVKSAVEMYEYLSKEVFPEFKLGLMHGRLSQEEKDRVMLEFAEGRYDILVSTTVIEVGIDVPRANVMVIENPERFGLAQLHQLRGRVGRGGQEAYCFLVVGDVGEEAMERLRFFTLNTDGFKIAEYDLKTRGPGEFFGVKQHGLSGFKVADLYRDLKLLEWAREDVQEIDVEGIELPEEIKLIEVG

[2] = molecular target: T1, RecG; test: Titrations of RecG into fluorescent nucleotides in the absence of DNA; type: binding
Description: The two phases of this fluorescence increase with excess RecG⋅DNA would therefore relate to formation of bound mantATP (1.5-fold intensity increase relative to free nucleotide) and bound mantADP (4.9-fold). This interpretation was supported by titrations of RecG into the fluorescent nucleotides in the absence of DNA.
Steady-state fluorescence was measured using a Cary Eclipse fluorimeter (Varian) with a xenon light source. Absorbance spectroscopy was performed using a Beckman DU640 spectrophotometer.

[3] = molecular target: T1, RecG; test: Stopped-flow mantATP binding in the absence of DNA
Source text: The kinetics of specific steps of the ATPase cycle were investigated in the absence of DNA, to determine which are modulated by the interaction with DNA. For the association measurements between RecG and mantATP, RecG was mixed with excess mantATP in the stopped-flow apparatus and the fluorescence followed with time. Following fitting by single exponentials, there was a linear relationship between the observed rate constant and nucleotide concentration (Figure S3A).
As done for the RecG⋅DNA complex, measurements were also taken with an excess of RecG over mantATP (Figure S3B). A large, relative rapid, increase in mant fluorescence was observed followed by a small gradual increase. The rate constants are consistent with those at excess mantATP. Under the same conditions of excess RecG over mantATP, mantATP cleavage (acid quench) and Pi release were measured (Figure S3B). […] The cleavage step rate constant was 4×10^−4 s^−1, ∼10^3 slower than in the presence of DNA. […] The cleavage step was greatly stimulated by DNA.
Supplementary file pone.0038270.s003.tif: Figure S3 Kinetic measurements in the absence of DNA. (A) Association kinetics with mantATP. Dependence of the observed rate constants on mantATP concentration from mixing 0.5 µM RecG with excess mantATP under the same conditions as Figure 3. Points shown are typically an average of three individual measurements. The best linear fit gives a slope of 0.4 (±0.15) µM^−1 s^−1 and intercept 1.7 (±0.6) s^−1. (B) Fluorescence trace upon mixing 2.5 µM RecG with 0.5 µM mantATP under the conditions of Figure 4. The trace was fitted by an exponential and a slope giving rates of 0.42 (±0.12) s^−1 for the former. Note that as the fluorescence slowly increases beyond the time course, it was not possible to calibrate the ordinate. Inset: Hydrolysis and Pi release for these conditions. The circles represent single time points for a quenched-flow measurement of mantADP formation. Pi release kinetics (continuous line) were measured for the same mixture containing 10 µM MDCC-PBP. (TIF) Click here for additional data file.

| SMILES | K m previously reported [1] [µM] | k cat previously reported [1] [s⁻¹] | increase in fluorescence on titration with RecG [2] [fold] | intercept (dissociation) ([3]; 0.5 µM RecG, excess mantATP) | second order association rate constant (slope) ([3]; 0.5 µM RecG, excess mantATP) | rate of exponential fluorescence increase ([3]; 2.5 µM RecG with 0.5 µM mantATP) | Kd ([3]; from intercept and slope) [µM] |
| --- | --- | --- | --- | --- | --- | --- | --- |
| Nc1ncnc2c1ncn2[C@@H]1O[C@H](COP(=O)(O)OP(=O)(O)OP(=O)(O)O)[C@@H](O)[C@H]1O [ATP] | 42 | 5.2 |  |  |  |  |  |
| CNc1ccccc1C(=O)O[C@H]1[C@@H](O)[C@H](n2cnc3c(N)ncnc32)O[C@@H]1COP(=O)(O)OP(=O)(O)OP(=O)(O)O [mantATP, 2′(3′)-O-(N-methylanthraniloyl)ATP] |  |  | 1.3 | 1.7 (±0.6) s^−1 | 0.4 (±0.15) µM^−1s^−1 | 0.42 (±0.12) s^−1 | 4.25 |
